Assay results: ChEMBL document CHEMBL1201862, “PubChem BioAssay data set” (2004)
One block for each compound: values may come before it. Calls of active or inactive are those of the source.

Assays:
HEK293 = test: cells; details: Homo sapiens;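 note: cells exposed to compound for 14 hours overnight before viability readout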
INS1 = test: INS-1E survival protection against cytokine death – cell-based, luminescence, retest, dose response (AID 449756); type: functional; details: Rattus norvegicus;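 note: cell death triggered by IL-1 beta plus TNF-alpha plus IFN-gamma mixture; protective hits raise ATP signal compared with cytokine alone wells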
[1] = target: Nucleotide-binding oligomerization domain-containing protein 1 (Homo sapiens, UniProt Q9Y239); test: blockers of NOD1 pathway activity – revised, SAR follow-up (AID 2333); type: functional
Tumor necrosis factor = Tumor necrosis factor (Homo sapiens, UniProt P01375); test: analog potency on TNFa NF-kB signaling – cell-based, revised, SAR follow-up (AID 2337); type: functional
Cytochrome P450 2C19 = Cytochrome P450 2C19 (Homo sapiens, UniProt P33261); test: Cytochrome panel assay with activity outcomes. Panel member name: p450-cyp2c19 Compounds with AC50 equal or less than 10 uM are considered active; type: functional; details: read-out: AC50
[2] = Luminescence Cell-Based Dose Confirmation HTS to Identify Inhibitors of Platelet Dense Granule Release. [Related pubchem assays: 1663 (Primary HTS), 1678 (Summary of Project)]; type: functional
Cytochrome P450 2D6 = Cytochrome P450 2D6 (Homo sapiens, UniProt P10635);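 note: CYP2D6 member of a cytochrome P450 panel assay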
Cytochrome P450 2C9 = Cytochrome P450 2C9 (Homo sapiens, UniProt P11712)
[3] = target: Luciferin 4-monooxygenase (Photinus pyralis, UniProt P08659); test: inhibition of purified Photinus pyralis luciferase – biochemical, luminescence, dose response (AID 1891)
Sequence of Luciferin 4-monooxygenase (P08659 whole entry): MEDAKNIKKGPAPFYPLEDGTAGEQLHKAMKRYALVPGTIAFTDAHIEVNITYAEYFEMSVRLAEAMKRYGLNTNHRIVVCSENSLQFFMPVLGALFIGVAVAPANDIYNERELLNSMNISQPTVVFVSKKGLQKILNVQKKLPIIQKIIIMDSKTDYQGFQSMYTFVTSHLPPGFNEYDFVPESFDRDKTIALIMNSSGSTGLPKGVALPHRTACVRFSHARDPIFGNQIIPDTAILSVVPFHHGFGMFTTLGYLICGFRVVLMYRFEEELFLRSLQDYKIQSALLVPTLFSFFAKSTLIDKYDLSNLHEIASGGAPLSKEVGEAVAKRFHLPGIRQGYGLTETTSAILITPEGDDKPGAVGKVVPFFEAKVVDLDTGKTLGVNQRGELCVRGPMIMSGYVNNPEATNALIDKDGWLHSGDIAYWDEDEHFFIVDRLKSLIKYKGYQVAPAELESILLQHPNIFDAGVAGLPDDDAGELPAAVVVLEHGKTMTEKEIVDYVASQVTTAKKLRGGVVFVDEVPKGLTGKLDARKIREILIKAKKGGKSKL

Sequence of Cytochrome P450 2D6 (P10635 whole entry): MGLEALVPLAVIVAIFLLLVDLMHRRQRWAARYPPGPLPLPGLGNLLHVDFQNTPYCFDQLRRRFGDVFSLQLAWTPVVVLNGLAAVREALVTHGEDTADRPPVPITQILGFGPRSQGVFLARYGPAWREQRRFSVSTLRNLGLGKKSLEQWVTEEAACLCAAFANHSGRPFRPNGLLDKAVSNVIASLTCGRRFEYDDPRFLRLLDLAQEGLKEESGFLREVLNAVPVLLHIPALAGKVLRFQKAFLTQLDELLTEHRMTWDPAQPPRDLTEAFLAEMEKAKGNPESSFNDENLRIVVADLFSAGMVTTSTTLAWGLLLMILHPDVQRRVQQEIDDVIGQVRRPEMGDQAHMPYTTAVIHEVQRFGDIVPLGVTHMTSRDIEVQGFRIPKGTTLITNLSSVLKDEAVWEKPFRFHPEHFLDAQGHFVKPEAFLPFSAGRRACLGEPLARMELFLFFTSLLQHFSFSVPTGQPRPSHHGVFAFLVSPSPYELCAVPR
Sequence of Nucleotide-binding oligomerization domain-containing protein 1 (Q9Y239 whole entry, the tested form may be a part): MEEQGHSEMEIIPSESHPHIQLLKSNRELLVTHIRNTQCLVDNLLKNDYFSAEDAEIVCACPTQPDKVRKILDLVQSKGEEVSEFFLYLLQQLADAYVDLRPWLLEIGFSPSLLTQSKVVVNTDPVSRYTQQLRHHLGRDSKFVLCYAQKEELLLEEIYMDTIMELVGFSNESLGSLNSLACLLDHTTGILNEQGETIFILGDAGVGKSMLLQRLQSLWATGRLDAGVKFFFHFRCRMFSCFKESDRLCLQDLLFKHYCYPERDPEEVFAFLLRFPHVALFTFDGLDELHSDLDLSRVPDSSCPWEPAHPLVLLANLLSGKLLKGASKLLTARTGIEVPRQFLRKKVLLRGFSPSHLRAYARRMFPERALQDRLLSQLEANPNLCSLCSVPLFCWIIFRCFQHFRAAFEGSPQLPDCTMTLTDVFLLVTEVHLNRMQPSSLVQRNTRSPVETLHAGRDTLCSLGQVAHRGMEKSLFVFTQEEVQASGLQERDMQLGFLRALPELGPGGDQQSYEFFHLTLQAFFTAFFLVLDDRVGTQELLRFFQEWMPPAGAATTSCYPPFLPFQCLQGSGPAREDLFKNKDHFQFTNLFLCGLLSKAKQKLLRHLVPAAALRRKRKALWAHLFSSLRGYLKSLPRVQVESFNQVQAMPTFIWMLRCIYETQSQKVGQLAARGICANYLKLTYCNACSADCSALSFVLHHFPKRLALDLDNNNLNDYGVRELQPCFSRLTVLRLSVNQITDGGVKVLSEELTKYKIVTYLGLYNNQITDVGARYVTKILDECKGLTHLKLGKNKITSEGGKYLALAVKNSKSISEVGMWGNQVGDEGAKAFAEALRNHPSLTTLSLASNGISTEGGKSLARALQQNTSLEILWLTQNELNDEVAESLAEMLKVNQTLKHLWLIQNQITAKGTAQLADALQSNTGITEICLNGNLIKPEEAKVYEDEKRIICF
Sequence of Cytochrome P450 2C9 (P11712 whole entry): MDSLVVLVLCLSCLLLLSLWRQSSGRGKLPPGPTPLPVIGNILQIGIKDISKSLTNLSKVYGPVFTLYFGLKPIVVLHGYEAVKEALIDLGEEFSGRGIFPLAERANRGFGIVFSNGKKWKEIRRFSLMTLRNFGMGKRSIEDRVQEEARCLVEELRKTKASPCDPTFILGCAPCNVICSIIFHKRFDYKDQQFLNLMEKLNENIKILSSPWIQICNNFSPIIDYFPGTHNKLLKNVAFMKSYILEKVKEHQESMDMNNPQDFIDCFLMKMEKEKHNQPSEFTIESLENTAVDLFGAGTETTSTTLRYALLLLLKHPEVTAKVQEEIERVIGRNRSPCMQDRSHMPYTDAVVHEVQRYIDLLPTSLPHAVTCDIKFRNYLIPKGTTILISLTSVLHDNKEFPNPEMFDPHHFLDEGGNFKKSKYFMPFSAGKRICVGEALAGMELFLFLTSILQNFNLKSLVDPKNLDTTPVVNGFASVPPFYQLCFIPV
Sequence of Tumor necrosis factor (P01375 whole entry): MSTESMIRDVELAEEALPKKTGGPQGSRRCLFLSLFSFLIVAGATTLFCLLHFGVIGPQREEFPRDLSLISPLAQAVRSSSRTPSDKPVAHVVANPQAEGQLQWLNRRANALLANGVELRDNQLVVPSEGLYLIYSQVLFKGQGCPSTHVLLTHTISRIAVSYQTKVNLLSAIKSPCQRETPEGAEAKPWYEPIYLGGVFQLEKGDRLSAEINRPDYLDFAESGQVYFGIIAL
Sequence of Cytochrome P450 2C19 (P33261 whole entry): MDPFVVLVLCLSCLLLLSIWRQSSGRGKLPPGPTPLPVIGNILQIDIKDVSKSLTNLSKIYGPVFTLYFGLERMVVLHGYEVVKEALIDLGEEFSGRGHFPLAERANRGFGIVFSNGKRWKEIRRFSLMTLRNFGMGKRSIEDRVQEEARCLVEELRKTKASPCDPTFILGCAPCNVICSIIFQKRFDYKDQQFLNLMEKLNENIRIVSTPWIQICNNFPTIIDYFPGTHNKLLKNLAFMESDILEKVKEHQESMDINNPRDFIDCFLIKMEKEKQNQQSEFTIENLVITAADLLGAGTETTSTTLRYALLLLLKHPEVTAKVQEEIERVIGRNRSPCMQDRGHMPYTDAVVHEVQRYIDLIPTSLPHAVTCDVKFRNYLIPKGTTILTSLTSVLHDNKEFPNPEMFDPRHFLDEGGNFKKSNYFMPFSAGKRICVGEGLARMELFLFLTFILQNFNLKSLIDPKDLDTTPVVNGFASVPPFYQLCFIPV

Compound: CC(=O)c1ccc(N2CCN(S(=O)(=O)c3ccc4c(c3)CC(C)N4C(C)=O)CC2)cc1 (stereo not given)
IC50 (HEK293): > 20 µM (inactive)
AC50 (INS1): 6.79 µM (active)
IC50 [1]: 4.42 µM (active)
IC50 (Tumor necrosis factor): 6.5 µM (active)

Compound: Cc1ccc(NC(=O)c2cc(NC(=O)CCCC(=O)O)ccc2Cl)cc1Cl
AC50 (Cytochrome P450 2C19): 0.891 µM (inconclusive)
EC50 [2]: > 112 µM (not active)
AC50 (Cytochrome P450 2D6): inconclusive
AC50 (Cytochrome P450 2C9): 15.8 µM (inconclusive)
EC50 [3]: > 112 µM (not active)

AC50 (Cytochrome P450 2D6): inconclusive
Compound: C#C[C@H](N)CCC(=O)O
